Broadly, the IC50 is the concentration needed to halve the response being measured. A lower IC50 goes with higher potency.

The target of the assay is T1, AHR (UniProt P35869).
T1 construct: IC50
T1 sequence (P35869 1-848): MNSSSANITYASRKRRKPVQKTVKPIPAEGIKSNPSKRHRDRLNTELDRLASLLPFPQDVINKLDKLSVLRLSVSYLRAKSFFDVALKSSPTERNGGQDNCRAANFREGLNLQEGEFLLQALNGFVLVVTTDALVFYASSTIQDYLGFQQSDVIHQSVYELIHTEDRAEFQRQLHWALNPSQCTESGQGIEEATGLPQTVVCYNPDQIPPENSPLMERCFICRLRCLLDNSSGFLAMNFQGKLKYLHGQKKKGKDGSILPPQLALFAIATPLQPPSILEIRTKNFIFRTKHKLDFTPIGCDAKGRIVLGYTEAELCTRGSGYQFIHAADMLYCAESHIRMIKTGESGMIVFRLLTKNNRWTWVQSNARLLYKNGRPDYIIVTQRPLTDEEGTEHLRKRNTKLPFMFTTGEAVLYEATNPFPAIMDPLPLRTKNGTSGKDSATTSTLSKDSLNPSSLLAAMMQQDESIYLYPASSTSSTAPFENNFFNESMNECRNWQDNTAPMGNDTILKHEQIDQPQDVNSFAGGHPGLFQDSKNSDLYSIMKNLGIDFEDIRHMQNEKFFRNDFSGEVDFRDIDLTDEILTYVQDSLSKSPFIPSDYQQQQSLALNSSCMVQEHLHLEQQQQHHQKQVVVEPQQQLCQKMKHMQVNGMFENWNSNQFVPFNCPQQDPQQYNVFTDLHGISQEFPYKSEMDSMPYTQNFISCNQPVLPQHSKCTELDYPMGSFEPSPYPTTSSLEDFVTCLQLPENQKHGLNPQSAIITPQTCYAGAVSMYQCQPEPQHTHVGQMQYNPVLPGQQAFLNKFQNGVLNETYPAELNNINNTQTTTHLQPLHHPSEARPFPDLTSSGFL
The assay can be described thus: DRE-Luciferase Reporter Assay (Alternate Method) (Example 1B). The class given is cell-based, murine or human. The note with it: cell line and AHR activating ligand not specified. For orientation: In a reporter assay the amount or activity of a reporter protein is the signal.
In the case of `Cc1cnn2c(N[C@H](Cc3c[nH]c4ccccc34)C(=O)N(C)C)cc(-c3cncc(F)c3)nc12` [I-187a], the 50% inhibitory concentration (IC50) is > 1.5 µM.
Then `CC(C)Oc1nc(N[C@@H]2CCc3[nH]c4ccccc4c3C2)nc(-c2cncc(F)c2)n1` [I-135, (3R)—N-[4-(5-Fluoro-3-pyridyl)-6-isopropoxy-1,3,5-triazin-2-yl]-2,3,4,9-tetrahydro-1H-carbazol-3-amine], with < 0.5 µM; and `NC(=O)c1cnn2c(NC3CCc4[nH]c5c(F)cccc5c4C3)cc(-c3cncc(F)c3)nc12` (stereo not shown) [I-231], with > 1.5 µM; and `Fc1cncc(-c2nc(N[C@H]3CCc4[nH]ccc4C3)c3ncccc3n2)c1` [I-252a, 2-(5-Fluoro-3-pyridyl)-N-[(5S)-4,5,6,7-tetrahydro-1H-indol-5-yl]pyrido[3,2-d]pyrimidin-4-amine], with < 0.5 µM.
Then `Fc1cncc(-c2cc(NCCc3c[nH]c4cccnc34)n3ncc(Br)c3n2)c1` [I-192, 3-Bromo-5-(5-fluoro-3-pyridyl)-N-[2-(1H-pyrrolo[3,2-b]pyridin-3-yl)ethyl]pyrazolo[1,5-a]pyrimidin-7-amine], with 0.5 to 1 µM; and `CC(C)n1cnc2c(NCCn3cnc4ccccc43)nc(-c3cncc(F)c3)nc21` [I-13, N-(2-(1H-Benzo[d]imidazol-1-yl)ethyl)-2-(5-fluoropyridin-3-yl)-9-isopropyl-9H-purin-6-amine], with > 1.5 µM.
Take `CC(C)c1cnn2c(N[C@@H]3CCc4nc(N)sc4C3)nc(-c3cncc(F)c3)nc12` [I-128b, (6R)—N6-[2-(5-Fluoro-3-pyridyl)-8-isopropyl-pyrazolo[1,5-a][1,3,5]triazin-4-yl]-4,5,6,7-tetrahydro-1,3-benzothiazole-2,6-diamine]: the IC50 is > 1.5 µM.
Then `CC(C)c1cnn2c(NC3CCc4[nH]c5ccccc5c4C3)nc(-c3cccc(OC(F)(F)F)c3)nc12` (stereo not shown) [I-261], with > 1.5 µM; and `Cc1cnn2c(NCCc3c[nH]c4c(O)cc(O)cc34)cc(-c3cncc(F)c3)nc12` [I-149], with > 1.5 µM.
Then `CC(C)c1cnn2c(N[C@@H]3CCc4[nH]c5ccccc5c4C3)cc(-c3cncc(C#N)c3)nc12` [I-38, 5-[3-Isopropyl-7-[[(3R)-2,3,4,9-tetrahydro-1H-carbazol-3-yl]amino]pyrazolo[1,5-a]pyrimidin-5-yl]pyridine-3-carbonitrile], with > 1.5 µM; and `CN(C)c1cnn2c(N[C@@H]3CCc4[nH]c5ccccc5c4C3)cc(-c3cncc(F)c3)nc12` [I-175, 5-(5-Fluoro-3-pyridyl)-N3,N3-dimethyl-N7-[(3R)-2,3,4,9-tetrahydro-1H-carbazol-3-yl]pyrazolo[1,5-a]pyrimidine-3,7-diamine], with > 1.5 µM; and `O=C(O)c1cnn2c(NC[C@H](O)c3c[nH]c4ccccc34)cc(-c3cncc(F)c3)nc12` [I-158a], with > 1.5 µM.
Then `COc1cncc(-c2cc(NC3CCc4[nH]c5ccccc5c4C3)n3ncc(C(C)C)c3n2)c1` (stereo not shown) [I-236], with > 1.5 µM; and `CN(C)C(=O)c1cnn2c(NCCc3c[nH]c4ccccc34)cc(-c3cncc(F)c3)nc12` [I-56, 5-(5-Fluoro-3-pyridyl)-7-[2-(1H-indol-3-yl)ethylamino]-N,N-dimethyl-pyrazolo[1,5-a]pyrimidine-3-carboxamide], with < 0.5 µM.
As to `CCc1cnn2c(NCCc3c[nH]c4ccccc34)cc(-c3cncc(F)c3)nc12` [I-237, 3-Ethyl-5-(5-fluoro-3-pyridyl)-N-[2-(1H-indol-3-yl)ethyl]pyrazolo[1,5-a]pyrimidin-7-amine], the half-inhibitory concentration (IC50) was < 0.5 µM.
For `CC(C)c1cnn2c(N[C@H]3CCc4c([nH]c5ccccc45)C3)nc(-c3cncc(F)c3)nc12` [I-146a], the 50% inhibitory concentration (IC50) was > 1.5 µM.
With `CC(C)Oc1cc(-c2ccccc2)nc(NCCc2c[nH]c3ccccc23)n1` [I-155, N-(2-(1H-Indol-3-yl)ethyl)-4-isopropoxy-6-phenylpyrimidin-2-amine], the IC50 lay in the range of 0.5 to 1 µM.
Then `Fc1cncc(-c2nccc(NCCc3c[nH]c4ccccc34)n2)c1` [I-148], with > 1.5 µM; and `CC(C)Oc1cc(-c2cncc(F)c2)nc(N[C@@H]2CCc3[nH]c4ccccc4c3C2)n1` [I-134], with > 1.5 µM.
`CC(C)c1cnn2c(NC3Cc4[nH]c5ccccc5c4C3)nc(-c3cncc(F)c3)nc12` (stereo in doubt) [I-263a, (2S)—N-[2-(5-Fluoro-3-pyridyl)-8-isopropyl-pyrazolo[1,5-a][1,3,5]triazin-4-yl]-1,2,3,4-tetrahydrocyclopenta[b]indol-2-amine] displayed an IC50 of 1 to 1.5 µM.
Then `CC(C)c1cnn2c(NC3CCc4[nH]c5ccccc5c4C3)cc(-c3cccc4c3OCO4)nc12` (stereo not shown) [I-228], with > 1.5 µM; and `CC(C)c1cnn2c(N[C@H]3CCc4nc(N)sc4C3)nc(-c3cncc(F)c3)nc12` [I-128a, (6S)—N6-[2-(5-Fluoro-3-pyridyl)-8-isopropyl-pyrazolo[1,5-a][1,3,5]triazin-4-yl]-4,5,6,7-tetrahydro-1,3-benzothiazole-2,6-diamine], with > 1.5 µM; and `CC(C)c1cnn2c(NCCc3c[nH]c4c(F)cc(F)cc34)cc(-c3cncc(F)c3)nc12` [I-99, N-[2-(5,7-Difluoro-1H-indol-3-yl)ethyl]-5-(5-fluoro-3-pyridyl)-3-isopropyl-pyrazolo[1,5-a]pyrimidin-7-amine], with < 0.5 µM.
Then `Fc1cncc(-c2cc(NC3Cc4cc5c(cc4C3)OCO5)n3nccc3n2)c1` [I-50, N-(6,7-Dihydro-5H-cyclopenta[f][1,3]benzodioxol-6-yl)-5-(5-fluoro-3-pyridyl)pyrazolo[1,5-a]pyrimidin-7-amine], with > 1.5 µM.
Then `CC(C)n1cnc2c(NCCn3c(=O)[nH]c4ccccc43)nc(-c3cncc(F)c3)nc21` [I-10, 3-[2-[[2-(5-Fluoro-3-pyridyl)-9-isopropyl-purin-6-yl]amino]ethyl]-1H-benzimidazol-2-one], with > 1.5 µM.
Consider `CC(C)c1cnn2c(C(=O)NCc3ccc(O)cc3)cc(-c3cncc(F)c3)nc12` [I-100, 5-(5-Fluoro-3-pyridyl)-N-[(4-hydroxyphenyl)methyl]-3-isopropyl-pyrazolo[1,5-a]pyrimidine-7-carboxamide], for which the half-inhibitory concentration (IC50) was > 1.5 µM.
Then `Cc1[nH]c2c(F)cc(F)cc2c1CCNc1cc(OC(C)C)nc(-c2cncc(F)c2)n1` [I-74, N-[2-(5,7-Difluoro-2-methyl-1H-indol-3-yl)ethyl]-2-(5-fluoro-3-pyridyl)-6-isopropoxy-pyrimidin-4-amine], with 0.5 to 1 µM; and `Cc1nn2c(NCCc3c[nH]c4ccccc34)cc(-c3cncc(F)c3)nc2c1C(C)C` [I-83, 5-(5-Fluoro-3-pyridyl)-N-[2-(1H-indol-3-yl)ethyl]-3-isopropyl-2-methyl-pyrazolo[1,5-a]pyrimidin-7-amine], with < 0.5 µM.
For `CC(C)c1cnn2c(N[C@@H]3CCc4[nH]c5ccccc5c4C3)cc(-c3cncnc3)nc12` [I-229, (3R)—N-(3-Isopropyl-5-pyrimidin-5-yl-pyrazolo[1,5-a]pyrimidin-7-yl)-2,3,4,9-tetrahydro-1H-carbazol-3-amine], the half-inhibitory concentration (IC50) was > 1.5 µM.
Then `Cc1cnn2c(NC(Cc3c[nH]c4ccccc34)CN(C)C)cc(-c3cncc(F)c3)nc12` (stereo not shown) [I-176], with > 1.5 µM.
Then `CC(C)c1cnn2c(N[C@H]3Cc4ccc(O)cc4C3)cc(-c3cncc(C#N)c3)nc12` (single isomer, unassigned) [I-37a], with > 1.5 µM; and `Fc1cncc(-c2nc(N[C@@H]3CCc4[nH]c5ccccc5c4C3)n3ccnc3n2)c1` [I-125, (3R)—N-[2-(5-Fluoro-3-pyridyl)imidazo[1,2-a][1,3,5]triazin-4-yl]-2,3,4,9-tetrahydro-1H-carbazol-3-amine], with > 1.5 µM.
Then `C#Cc1cnn2c(NC3CCc4[nH]c5ccccc5c4C3)nc(-c3cncc(F)c3)nc12` (stereo not shown) [I-282], with < 0.5 µM.
With `CC(C)(C)c1cnn2c(N[C@@H]3CCc4[nH]c5ccccc5c4C3)nc(-c3cncc(F)c3)nc12` [I-132, (R)—N-(8-(tert-Butyl)-2-(5-fluoropyridin-3-yl)pyrazolo[1,5-a][1,3,5]triazin-4-yl)-2,3,4,9-tetrahydro-1H-carbazol-3-amine], the IC50 lay in the range of 0.5 to 1 µM.
Then `CC(C)c1cnn2c(NCCc3c[nH]c4cccnc34)cc(-c3cncc(F)c3)nc12` [I-110, 5-(5-Fluoro-3-pyridyl)-3-isopropyl-N-[2-(1H-pyrrolo[3,2-b]pyridin-3-yl)ethyl]pyrazolo[1,5-a]pyrimidin-7-amine], with 0.5 to 1 µM; and `CC(C)c1cnn2c(NC[C@@H](C)c3ccc(O)cc3)cc(-c3cncc(F)c3)nc12` [I-28a, 4-[(1S)-2-[[5-(5-fluoro-3-pyridyl)-3-isopropyl-pyrazolo[1,5-a]pyrimidin-7-yl]amino]-1-methyl-ethyl]phenol], with > 1.5 µM; and `Cc1cc(CCNc2cc(-c3cncc(F)c3)nc3c(C(C)C)cnn23)ccc1O` [I-102, 4-[2-[[5-(5-Fluoro-3-pyridyl)-3-isopropyl-pyrazolo[1,5-a]pyrimidin-7-yl]amino]ethyl]-2-methyl-phenol], with < 0.5 µM.
